Assay results taken from PubChem BioAssay AID248 (DTP/NCI, 2004).
Values joined by “and” are separate entries in the source; they are usually repeats but may differ in a detail not shown here. Equal entries are not always repeated. Toxic doses and inconclusive results are not listed. Rule as the data show it: active = T/C of 150% or more; inactive = T/C below 125%.

System: L1210 leukemia ip in BDF1 mice, survival T/C
Test: NCI In Vivo Anticancer Drug Screen. Data for tumor model L1210 Leukemia (intraperitoneal) in B6D2F1 (BDF1) mice
Details: endpoint: mean survival time, higher = longer survival
Outline: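 Tumor cells were implanted, animals were treated, and survival was followed. The result divides the treated measurement by the vehicle-control measurement.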

[1] = dose: 100.0 mg/kg/injection, schedule: Q01DX009 (ip), vehicle: saline with Tween-80
[2] = dose: 200.0 mg/kg/injection, schedule: Q01DX009 (ip), vehicle: saline with Tween-80
[3] = dose: 100.0 mg/kg/injection, schedule: Q01DX009 (ip), vehicle: Klucel (hydroxypropylcellulose) (HPC)
[4] = dose: 100.0 mg/kg/injection, schedule: Q04DX003 (ip), vehicle: Klucel (hydroxypropylcellulose) (HPC)
[5] = dose: 200.0 mg/kg/injection, schedule: Q01DX009 (ip), vehicle: Klucel (hydroxypropylcellulose) (HPC)
[6] = dose: 200.0 mg/kg/injection, schedule: Q04DX003 (ip), vehicle: Klucel (hydroxypropylcellulose) (HPC)
[7] = dose: 400.0 mg/kg/injection, schedule: Q01DX009 (ip), vehicle: Klucel (hydroxypropylcellulose) (HPC)
[8] = dose: 400.0 mg/kg/injection, schedule: Q04DX003 (ip), vehicle: Klucel (hydroxypropylcellulose) (HPC)
[9] = dose: 50.0 mg/kg/injection, schedule: Q01DX001 (ip), vehicle: carboxymethylcellulose (CMC)
[10] = dose: 10.0 mg/kg/injection, schedule: Q01DX001 (ip), vehicle: saline
[11] = dose: 100.0 mg/kg/injection, schedule: Q01DX001 (ip), vehicle: saline

Measured: T/C

COC1OC(CBr)C(Br)C(OC(=O)c2ccccc2)C1OC(=O)c1ccccc1 (configuration not stated)
inactive: dose: 75.0 mg/kg/injection, schedule: Q04DX002 (ip), vehicle: Klucel (hydroxypropylcellulose) (HPC) 103 % of control | dose: 150.0 mg/kg/injection, schedule: Q04DX002 (ip), vehicle: Klucel (hydroxypropylcellulose) (HPC) 98 % of control | dose: 300.0 mg/kg/injection, schedule: Q04DX002 (ip), vehicle: Klucel (hydroxypropylcellulose) (HPC) 98 % of control

COc1ccc(OC(=O)Nc2ccc(C)cc2Cl)cc1
inactive: [1] 96 % of control and 104 % of control | dose: 100.0 mg/kg/injection, schedule: Q04DX002 (ip), vehicle: saline with Tween-80 103 % of control and 104 % of control | [2] 97 % of control and 105 % of control | dose: 200.0 mg/kg/injection, schedule: Q04DX002 (ip), vehicle: saline with Tween-80 100 % of control and 107 % of control | dose: 400.0 mg/kg/injection, schedule: Q01DX009 (ip), vehicle: saline with Tween-80 105 % of control and 108 % of control | dose: 400.0 mg/kg/injection, schedule: Q04DX002 (ip), vehicle: saline with Tween-80 96 % of control and 106 % of control

CCSSCC(N)C(=O)O (configuration not stated)
inactive: dose: 100.0 mg/kg/injection, schedule: Q01DX001 (ip), vehicle: other 94 % of control | dose: 200.0 mg/kg/injection, schedule: Q01DX001 (ip), vehicle: other 103 % of control | dose: 400.0 mg/kg/injection, schedule: Q01DX001 (ip), vehicle: other 103 % of control

O=C(CCN1CC=C(c2ccccc2)CC1)c1ccc(N2CC=C(c3ccccc3)CC2)cc1
inactive: dose: 75.0 mg/kg/injection, schedule: Q04DX002 (ip), vehicle: saline with Tween-80 100 % of control | dose: 150.0 mg/kg/injection, schedule: Q04DX002 (ip), vehicle: saline with Tween-80 100 % of control | dose: 300.0 mg/kg/injection, schedule: Q04DX002 (ip), vehicle: saline with Tween-80 107 % of control

CSCc1ccc([N+](=O)[O-])cc1
inactive: [3] 103 % of control | [4] 101 % of control | [5] 103 % of control | [6] 106 % of control | [7] 116 % of control | [8] 95 % of control

O=S1(=O)CC(Cl)C(I)C1 (configuration not stated)
inactive: [1] 102 % of control | [2] 109 % of control

O=C(O)c1ccc2c(c1Sc1ccccc1)C(=O)c1ccccc1C2=O
inactive: dose: 75.0 mg/kg/injection, schedule: Q01DX001 (ip), vehicle: saline 104 % of control | dose: 150.0 mg/kg/injection, schedule: Q01DX001 (ip), vehicle: saline 107 % of control | dose: 300.0 mg/kg/injection, schedule: Q01DX001 (ip), vehicle: saline 91 % of control

CC1CN1P(=S)(N1CCCCC1)N1CC1C (configuration not stated)
inactive: [9] 102 % of control | dose: 100.0 mg/kg/injection, schedule: Q01DX001 (ip), vehicle: carboxymethylcellulose (CMC) 91 % of control | dose: 200.0 mg/kg/injection, schedule: Q01DX001 (ip), vehicle: carboxymethylcellulose (CMC) 91 % of control | dose: 400.0 mg/kg/injection, schedule: Q01DX001 (ip), vehicle: carboxymethylcellulose (CMC) 105 % of control | dose: 600.0 mg/kg/injection, schedule: Q01DX001 (ip), vehicle: carboxymethylcellulose (CMC) 103 % of control | dose: 800.0 mg/kg/injection, schedule: Q01DX001 (ip), vehicle: carboxymethylcellulose (CMC) 101 % of control

Cc1cc([N+](=O)[O-])ccc1NC(=O)C(Br)C(Br)C(=O)O (configuration not stated)
inactive: dose: 25.0 mg/kg/injection, schedule: Q01DX009 (ip), vehicle: other 101 % of control | dose: 50.0 mg/kg/injection, schedule: Q01DX009 (ip), vehicle: other 102 % of control | dose: 100.0 mg/kg/injection, schedule: Q01DX009 (ip), vehicle: other 93 % of control and 94 % of control

C/C=C/C1=C(Cl)C(=O)[C@@H](Cl)[C@@]1(O)C(=O)OC
inactive: dose: 1.25 mg/kg/injection, schedule: Q01DX009 (ip), vehicle: saline 101 % of control | dose: 2.5 mg/kg/injection, schedule: Q01DX009 (ip), vehicle: saline 97 % of control | dose: 2.5 mg/kg/injection, schedule: Q04DX003 (ip), vehicle: saline 101 % of control | dose: 5.0 mg/kg/injection, schedule: Q01DX009 (ip), vehicle: saline 103 % of control | dose: 5.0 mg/kg/injection, schedule: Q04DX003 (ip), vehicle: saline 95 % of control | [10] 94 % of control | dose: 10.0 mg/kg/injection, schedule: Q04DX003 (ip), vehicle: saline 100 % of control

CCN(CC)CC(=O)NC(CCN(C)C)c1cccc2ccccc12 (configuration not stated)
inactive: dose: 25.0 mg/kg/injection, schedule: Q04DX002 (ip), vehicle: saline 103 % of control | dose: 50.0 mg/kg/injection, schedule: Q04DX002 (ip), vehicle: saline 103 % of control | dose: 100.0 mg/kg/injection, schedule: Q04DX002 (ip), vehicle: saline 98 % of control

O=C/C(Br)=C(\Br)C(=O)O
inactive: dose: 12.5 mg/kg/injection, schedule: Q01DX001 (ip), vehicle: carboxymethylcellulose (CMC) 93 % of control | dose: 12.5 mg/kg/injection, schedule: Q01DX009 (ip), vehicle: carboxymethylcellulose (CMC) 95 % of control | dose: 12.5 mg/kg/injection, schedule: Q04DX002 (ip), vehicle: carboxymethylcellulose (CMC) 97 % of control | dose: 12.5 mg/kg/injection, schedule: Q04DX003 (ip), vehicle: carboxymethylcellulose (CMC) 97 % of control | dose: 25.0 mg/kg/injection, schedule: Q01DX001 (ip), vehicle: carboxymethylcellulose (CMC) 93 % of control | dose: 25.0 mg/kg/injection, schedule: Q01DX009 (ip), vehicle: carboxymethylcellulose (CMC) 98 % of control and 92 % of control | dose: 25.0 mg/kg/injection, schedule: Q04DX002 (ip), vehicle: carboxymethylcellulose (CMC) 93 % of control and 98 % of control | dose: 25.0 mg/kg/injection, schedule: Q04DX003 (ip), vehicle: carboxymethylcellulose (CMC) 103 % of control | [9] 106 % of control | dose: 50.0 mg/kg/injection, schedule: Q01DX009 (ip), vehicle: carboxymethylcellulose (CMC) 96 % of control | dose: 50.0 mg/kg/injection, schedule: Q04DX002 (ip), vehicle: carboxymethylcellulose (CMC) 90 % of control

CC(C(=O)c1cccs1)C(O)(C(F)(F)F)C(F)(F)F (configuration not stated)
inactive: [4] 95 % of control | [6] 95 % of control | [8] 103 % of control

CC1=CC(=O)N(C2=CC(=O)C=CC2=O)/C1=C/C#N
inactive: dose: 12.5 mg/kg/injection, schedule: Q01DX001 (ip), vehicle: Klucel (hydroxypropylcellulose) (HPC) 97 % of control | dose: 25.0 mg/kg/injection, schedule: Q01DX001 (ip), vehicle: Klucel (hydroxypropylcellulose) (HPC) 88 % of control | dose: 50.0 mg/kg/injection, schedule: Q01DX001 (ip), vehicle: Klucel (hydroxypropylcellulose) (HPC) 93 % of control and 89 % of control

O=C(CCCc1ccccc1)N1CCOCC1
inactive: dose: 100.0 mg/kg/injection, schedule: Q01DX009 (ip), vehicle: saline sonified 94 % of control | dose: 200.0 mg/kg/injection, schedule: Q01DX009 (ip), vehicle: saline sonified 96 % of control | dose: 400.0 mg/kg/injection, schedule: Q01DX009 (ip), vehicle: saline sonified 102 % of control

CC(C)CCNCC(C)(C)OC(=O)c1ccc(N)cc1
inactive: [10] 112 % of control | dose: 20.0 mg/kg/injection, schedule: Q01DX001 (ip), vehicle: saline 100 % of control | dose: 40.0 mg/kg/injection, schedule: Q01DX001 (ip), vehicle: saline 102 % of control

CCCCCCC(C)NCC(O)COc1cccc(C)c1 (configuration not stated)
inactive: dose: 12.5 mg/kg/injection, schedule: Q01DX009 (ip), vehicle: saline with Tween-80 94 % of control | dose: 25.0 mg/kg/injection, schedule: Q01DX009 (ip), vehicle: saline with Tween-80 97 % of control

SCc1ccccc1
inactive: [11] 91 % of control | dose: 200.0 mg/kg/injection, schedule: Q01DX001 (ip), vehicle: saline 111 % of control | dose: 400.0 mg/kg/injection, schedule: Q01DX001 (ip), vehicle: saline 105 % of control

CC(=O)NCCCc1c(C)nc(NC(C)=O)[nH]c1=O
inactive: dose: 25.0 mg/kg/injection, schedule: Q01DX001 (ip), vehicle: saline 94 % of control | dose: 50.0 mg/kg/injection, schedule: Q01DX001 (ip), vehicle: saline 108 % of control | [11] 102 % of control

CCn1cc(C(=O)O)c(=O)c2ccc(-c3ccncc3)cc21
inactive: [3] 98 % of control | [4] 91 % of control | [5] 101 % of control | [6] 91 % of control | [7] 102 % of control | [8] 89 % of control
